From PubChem BioAssay AID248 (DTP/NCI, 2004)
Values joined by “and” are separate entries in the source; they are usually repeats but may differ in a detail not shown here. Equal entries are not always repeated. Toxic doses and inconclusive results are not listed. Cut-off read from the data, not from the text of the source: active = T/C of 150% or more; inactive = T/C below 125%.

System: L1210 leukemia ip in BDF1 mice, survival T/C
Test: NCI In Vivo Anticancer Drug Screen. Data for tumor model L1210 Leukemia (intraperitoneal) in B6D2F1 (BDF1) mice
Settings: endpoint: mean survival time, higher = longer survival
Outline: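 Antitumor effect is assessed in tumor-bearing animals. Survival in the compound arm is compared with a vehicle-dosed control arm and expressed as their quotient.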

[1] = dose: 100.0 mg/kg/injection, schedule: Q01DX001 (ip), vehicle: saline
[2] = dose: 200.0 mg/kg/injection, schedule: Q01DX001 (ip), vehicle: saline
[3] = dose: 400.0 mg/kg/injection, schedule: Q01DX001 (ip), vehicle: saline
[4] = dose: 100.0 mg/kg/injection, schedule: Q04DX002 (ip), vehicle: saline
[5] = dose: 50.0 mg/kg/injection, schedule: Q01DX009 (ip), vehicle: saline
[6] = dose: 100.0 mg/kg/injection, schedule: Q01DX009 (ip), vehicle: saline
[7] = dose: 100.0 mg/kg/injection, schedule: Q04DX003 (ip), vehicle: saline
[8] = dose: 200.0 mg/kg/injection, schedule: Q01DX009 (ip), vehicle: saline
[9] = dose: 200.0 mg/kg/injection, schedule: Q04DX003 (ip), vehicle: saline
[10] = dose: 100.0 mg/kg/injection, schedule: Q04DX002 (ip), vehicle: saline with Tween-80
[11] = dose: 200.0 mg/kg/injection, schedule: Q04DX002 (ip), vehicle: saline with Tween-80
[12] = dose: 400.0 mg/kg/injection, schedule: Q04DX002 (ip), vehicle: saline with Tween-80
[13] = dose: 25.0 mg/kg/injection, schedule: Q01DX009 (ip), vehicle: saline
[14] = dose: 100.0 mg/kg/injection, schedule: Q01DX009 (ip), vehicle: saline with Tween-80
[15] = dose: 200.0 mg/kg/injection, schedule: Q01DX009 (ip), vehicle: saline with Tween-80
[16] = dose: 400.0 mg/kg/injection, schedule: Q01DX009 (ip), vehicle: saline with Tween-80
[17] = dose: 100.0 mg/kg/injection, schedule: Q01DX009 (ip), vehicle: Klucel (hydroxypropylcellulose) (HPC)
[18] = dose: 200.0 mg/kg/injection, schedule: Q01DX009 (ip), vehicle: Klucel (hydroxypropylcellulose) (HPC)
[19] = dose: 100.0 mg/kg/injection, schedule: Q01DX001 (ip), vehicle: carboxymethylcellulose (CMC)
[20] = dose: 200.0 mg/kg/injection, schedule: Q01DX001 (ip), vehicle: carboxymethylcellulose (CMC)
[21] = dose: 100.0 mg/kg/injection, schedule: Q01DX001 (ip), vehicle: saline with Tween-80
[22] = dose: 200.0 mg/kg/injection, schedule: Q01DX001 (ip), vehicle: saline with Tween-80

Measured: T/C

C=C[CH2][Sn]([CH2]C=C)([c]1ccccc1)[c]1ccccc1
inactive: dose: 1.56 mg/kg/injection, schedule: Q01DX009 (ip), vehicle: saline with Tween-80 97 % of control | dose: 3.13 mg/kg/injection, schedule: Q01DX009 (ip), vehicle: saline with Tween-80 92 % of control | dose: 6.25 mg/kg/injection, schedule: Q01DX009 (ip), vehicle: saline with Tween-80 86 % of control

C=C(C)C1Cc2c(ccc3c2OC2COc4cc(OC)c(OC)cc4C2(O)C3=O)O1 (stereo not given)
inactive: dose: 12.5 mg/kg/injection, schedule: Q01DX009 (ip), vehicle: carboxymethylcellulose (CMC) 107 % of control

O=C1C=C(Nc2ccc(Cl)cc2)c2ccccc2C1=O
inactive: dose: 100.0 mg/kg/injection, schedule: Q01DX001 (ip), vehicle: other 98 % of control | dose: 200.0 mg/kg/injection, schedule: Q01DX001 (ip), vehicle: other 90 % of control | dose: 400.0 mg/kg/injection, schedule: Q01DX001 (ip), vehicle: other 95 % of control

CC(=O)OCC1C(OC(C)=O)C(OC(C)=O)C(OC(C)=O)N1C(C)=O (stereo not given)
inactive: dose: 50.0 mg/kg/injection, schedule: Q01DX001 (ip), vehicle: saline 98 % of control | [1] 95 % of control | [2] 98 % of control | [3] 98 % of control

Cc1c([N+](=O)[O-])sc2ccccc12
inactive: [1] 97 % of control | [2] 97 % of control | [3] 90 % of control

N=C(N)SCCCCCSC(=N)N
inactive: [1] 124 % of control | [4] 110 % of control | [2] 109 % of control | dose: 200.0 mg/kg/injection, schedule: Q04DX002 (ip), vehicle: saline 91 % of control

OCc1nc2nc(Cl)c(Cl)nc2[nH]1
inactive: [5] 93 % of control | [6] 98 % of control | [7] 107 % of control | [8] 95 % of control | [9] 98 % of control | dose: 400.0 mg/kg/injection, schedule: Q04DX003 (ip), vehicle: saline 96 % of control

S=c1c2ccccc2oc2ccccc12
inactive: dose: 50.0 mg/kg/injection, schedule: Q04DX002 (ip), vehicle: saline with Tween-80 93 % of control | [10] 93 % of control | [11] 87 % of control | [12] 97 % of control

CCOC(=O)NCC[N+](C)(C)C
inactive: dose: 6.25 mg/kg/injection, schedule: Q01DX009 (ip), vehicle: saline 94 % of control | dose: 12.5 mg/kg/injection, schedule: Q01DX009 (ip), vehicle: saline 100 % of control | [13] 102 % of control

CCC1(OC(C)=O)C(=O)OCc2c1cc1n(c2=O)Cc2cc3ccccc3nc2-1 (stereo not given)
inactive: dose: 0.13 mg/kg/injection, schedule: Q01DX009 (ip), vehicle: carboxymethylcellulose (CMC) 96 % of control | dose: 0.13 mg/kg/injection, schedule: Q01DX Z (ip), vehicle: water 93 % of control | dose: 0.22 mg/kg/injection, schedule: Q01DX Z (ip), vehicle: water 116 % of control | dose: 0.25 mg/kg/injection, schedule: Q01DX009 (ip), vehicle: carboxymethylcellulose (CMC) 96 % of control | dose: 0.36 mg/kg/injection, schedule: Q01DX Z (ip), vehicle: water 108 % of control | dose: 0.5 mg/kg/injection, schedule: Q01DX009 (ip), vehicle: carboxymethylcellulose (CMC) 91 % of control | dose: 1.0 mg/kg/injection, schedule: Q01DX009 (ip), vehicle: carboxymethylcellulose (CMC) 104 % of control | dose: 1.0 mg/kg/injection, schedule: Q01DX Z (ip), vehicle: water 114 % of control | dose: 2.0 mg/kg/injection, schedule: Q01DX009 (ip), vehicle: carboxymethylcellulose (CMC) 91 % of control

O=C(NCC(O)CI)c1ccc([N+](=O)[O-])cc1 (stereo not given)
inactive: [14] 104 % of control | [15] 102 % of control | [16] 89 % of control

O=C(O)c1cc([N+](=O)[O-])ccc1Br
inactive: dose: 50.0 mg/kg/injection, schedule: Q01DX009 (ip), vehicle: Klucel (hydroxypropylcellulose) (HPC) 89 % of control | [17] 86 % of control | [18] 93 % of control

O=C(O)c1ccc2c(c1)C(=O)c1cc([N+](=O)[O-])ccc1-2
inactive: [19] 102 % of control | [20] 102 % of control

Nc1ccc(N(S(=O)(=O)c2ccccc2)S(=O)(=O)c2ccccc2)nc1
inactive: [17] 95 % of control | dose: 100.0 mg/kg/injection, schedule: Q04DX003 (ip), vehicle: Klucel (hydroxypropylcellulose) (HPC) 98 % of control | [18] 100 % of control | dose: 200.0 mg/kg/injection, schedule: Q04DX003 (ip), vehicle: Klucel (hydroxypropylcellulose) (HPC) 97 % of control | dose: 400.0 mg/kg/injection, schedule: Q01DX009 (ip), vehicle: Klucel (hydroxypropylcellulose) (HPC) 106 % of control | dose: 400.0 mg/kg/injection, schedule: Q04DX003 (ip), vehicle: Klucel (hydroxypropylcellulose) (HPC) 103 % of control

C[N+](C)(C)CCNC(=O)C12CC3CC(CC(C3)C1)C2
inactive: dose: 25.0 mg/kg/injection, schedule: Q04DX002 (ip), vehicle: saline 89 % of control | dose: 50.0 mg/kg/injection, schedule: Q04DX002 (ip), vehicle: saline 94 % of control | [4] 86 % of control

O=C(c1cc(Cl)cc(Cl)c1)N1CC1
inactive: [13] 100 % of control | [5] 91 % of control | [6] 90 % of control | [8] 100 % of control | dose: 400.0 mg/kg/injection, schedule: Q01DX009 (ip), vehicle: saline 96 % of control

O=C(Nc1ccc(Cl)cc1[N+](=O)[O-])Oc1ccc(-c2ccccc2)cc1
inactive: [21] 97 % of control | [14] 94 % of control and 103 % of control | [10] 97 % of control and 91 % of control | dose: 100.0 mg/kg/injection, schedule: Q04DX003 (ip), vehicle: saline with Tween-80 108 % of control | [22] 100 % of control | [15] 92 % of control | [11] 102 % of control and 90 % of control | dose: 200.0 mg/kg/injection, schedule: Q04DX003 (ip), vehicle: saline with Tween-80 107 % of control | dose: 400.0 mg/kg/injection, schedule: Q01DX001 (ip), vehicle: saline with Tween-80 89 % of control | [16] 106 % of control and 92 % of control | [12] 103 % of control and 91 % of control | dose: 400.0 mg/kg/injection, schedule: Q04DX003 (ip), vehicle: saline with Tween-80 95 % of control

O=C1CCC(=O)N1CCc1csc2ccccc12
inactive: [19] 110 % of control | dose: 177.6 mg/kg/injection, schedule: Q01DX001 (ip), vehicle: carboxymethylcellulose (CMC) 95 % of control and 92 % of control | [20] 96 % of control | dose: 266.8 mg/kg/injection, schedule: Q01DX001 (ip), vehicle: carboxymethylcellulose (CMC) 93 % of control and 94 % of control | dose: 600.0 mg/kg/injection, schedule: Q01DX001 (ip), vehicle: carboxymethylcellulose (CMC) 101 % of control and 91 % of control

NC(=S)Nc1cccnc1
inactive: dose: 25.0 mg/kg/injection, schedule: Q04DX002 (ip), vehicle: Klucel (hydroxypropylcellulose) (HPC) 91 % of control | dose: 50.0 mg/kg/injection, schedule: Q04DX002 (ip), vehicle: Klucel (hydroxypropylcellulose) (HPC) 91 % of control | dose: 100.0 mg/kg/injection, schedule: Q04DX002 (ip), vehicle: Klucel (hydroxypropylcellulose) (HPC) 97 % of control

CCCCCCCCCCCCCCCCCCOc1cccc(C(F)(F)F)c1
inactive: [21] 89 % of control | [22] 91 % of control

O=C(O)C(O)C(=O)O
inactive: [5] 95 % of control | [6] 89 % of control | [7] 103 % of control | [8] 92 % of control | [9] 100 % of control

CCCCCCC(/C=N\NC(=O)c1cccc2ccccc12)=C\c1ccccc1
inactive: [2] 97 % of control

NC1CON(C(c2ccccc2)(c2ccccc2)c2ccccc2)C1=O (stereo not given)
inactive: [19] 94 % of control | [20] 89 % of control

C=C[Si](C)(OCC)OCC
inactive: [1] 93 % of control | [2] 90 % of control | [3] 101 % of control
